Assay [1] relates to liver-stage P. berghei parasites (Pbluc). Briefly: Liver-stage P. berghei assay (Pbluc). In kind it is cell-based. The conditions noted are these: Plasmodium berghei.
Another assay has as its target PfAcAS WT (Plasmodium falciparum, UniProt C6KTB4). Description: EnzChek assay, recombinant PfAcAS WT (steady-state kinetics and IC50). It counts as biochemical, P. falciparum. The method, then:
(§1) Steady-state kinetic measurements were conducted at room temperature using a PheraStar plate reader (BMG). The first step of the reaction of PfAcAS, which produces inorganic pyrophosphate (PPi) that is converted to two molecules of inorganic phosphate using a pyrophosphatase enzyme, was continuously monitored using the EnzChek Phosphate Assay Kit, which gives an absorbance readout at 360 nm (Figure 4A) ([Webb, 1992]). […] By adding CoA, the reaction rapidly proceeds to the second step resulting in further release of pyrophosphate, making the EnzChek assay a suitable option to continuously monitor the activity of PfAcAS. Typical kinetic assays were carried out in clear, flat-bottom, polystyrene, 384-well plates (Greiner) in an 80 μL reaction volume containing 100 mM HEPES (pH7.4), 100 mM NaCl, 250 mM KCl, 50 mM MgCl2, 1 mM DTT, 0.004% Tween 20, 0.5 U/mL pyrophosphatase, 0.1 mM MESG, 0.5 U/mL PNP, 2 mM ATP, 2 mM acetate, 0.5 mM CoA and 5 nM recombinant PfAcAS WT or 10 nM recombinant PfAcAS A597V or T648M. Assays were performed by adding 40 μL of a 2-times concentrated substrate mixture including MESG to all wells, and the reactions started by adding 40 μL of a 2-times concentrated reaction mixture containing all other components. The reactions were carried out for 2 to 4 hr with absorbance readings at 360 nm every two to four minutes. Reaction rates were extracted from the linear phase of activity, usually using 10 to 20 points between times of 30 and 100 min of the reactions. Using a phosphate standard curve obtained under the same buffer conditions used for the PfAcAS reactions (Figure S5A), the rates were then converted to velocity per second, conversion of one nanomolar of phosphate, per nanomolar of enzyme, per second. The substrates Km values were determined by varying the concentration of one of the substrates at saturating concentration of the other two substrates. Steady-state data were fitted using the nonlinear, least-squares, curve-fitting programs of Sigma-Plot for Windows, version 14.0. Individual saturation curves were fit to Equation 1(Equation 1) v=VS/K+S where V is the maximal velocity, S is the substrate concentration and K is the Michaelis constant for the substrate (Km). Individual saturation curves displaying substrate inhibition were fit to Equation 2(Equation 2) v=VS/K+S×(1+S/Ks) where Ks is the substrate inhibition constant.
(§2) To determine the steady-state inhibition parameters and patterns associated with both inhibitors, PfAcAS activity was studied in the presence of variable concentrations of one substrate, ATP, acetate or CoA, fixed saturating concentration of the other two substrates (acetate and CoA, ATP and CoA, or ATP and acetate) and several fixed concentrations of inhibitor. Assay ready plates containing different concentrations of inhibitor were prepared using an Echo 550 acoustic dispenser (Labcyte Inc.). The assays were carried out as described in the previous section. […] For better comparison between both inhibitors and proteins, the ymin was fixed to zero and the ymax to 100. Inhibition data showing linear, competitive patterns in double-reciprocal plots were fit to Equation 4(Equation 4) v=VS/K(1+I/Ki)+S where Ki is the dissociation constant for the enzyme-inhibitor complex. Inhibition data showing linear, mixed inhibition patterns in double-reciprocal plots were fit to Equation 5(Equation 5) v=VS/K(1+I/Kis)+S(1+I/Kii) where Kis is the dissociation constant for the free enzyme-inhibitor complex and Kii is the dissociation constant for the enzyme-substrate-inhibitor complex. Inhibition data showing linear, uncompetitive patterns in double-reciprocal plots were fit to Equation 6(Equation 6) v=VS/K+S(1+I/Ki)

The target in another assay is T1, PfAcAS T648M (Plasmodium falciparum, UniProt C6KTB4, T648M).
T1 sequence (C6KTB4 1-997 T648M): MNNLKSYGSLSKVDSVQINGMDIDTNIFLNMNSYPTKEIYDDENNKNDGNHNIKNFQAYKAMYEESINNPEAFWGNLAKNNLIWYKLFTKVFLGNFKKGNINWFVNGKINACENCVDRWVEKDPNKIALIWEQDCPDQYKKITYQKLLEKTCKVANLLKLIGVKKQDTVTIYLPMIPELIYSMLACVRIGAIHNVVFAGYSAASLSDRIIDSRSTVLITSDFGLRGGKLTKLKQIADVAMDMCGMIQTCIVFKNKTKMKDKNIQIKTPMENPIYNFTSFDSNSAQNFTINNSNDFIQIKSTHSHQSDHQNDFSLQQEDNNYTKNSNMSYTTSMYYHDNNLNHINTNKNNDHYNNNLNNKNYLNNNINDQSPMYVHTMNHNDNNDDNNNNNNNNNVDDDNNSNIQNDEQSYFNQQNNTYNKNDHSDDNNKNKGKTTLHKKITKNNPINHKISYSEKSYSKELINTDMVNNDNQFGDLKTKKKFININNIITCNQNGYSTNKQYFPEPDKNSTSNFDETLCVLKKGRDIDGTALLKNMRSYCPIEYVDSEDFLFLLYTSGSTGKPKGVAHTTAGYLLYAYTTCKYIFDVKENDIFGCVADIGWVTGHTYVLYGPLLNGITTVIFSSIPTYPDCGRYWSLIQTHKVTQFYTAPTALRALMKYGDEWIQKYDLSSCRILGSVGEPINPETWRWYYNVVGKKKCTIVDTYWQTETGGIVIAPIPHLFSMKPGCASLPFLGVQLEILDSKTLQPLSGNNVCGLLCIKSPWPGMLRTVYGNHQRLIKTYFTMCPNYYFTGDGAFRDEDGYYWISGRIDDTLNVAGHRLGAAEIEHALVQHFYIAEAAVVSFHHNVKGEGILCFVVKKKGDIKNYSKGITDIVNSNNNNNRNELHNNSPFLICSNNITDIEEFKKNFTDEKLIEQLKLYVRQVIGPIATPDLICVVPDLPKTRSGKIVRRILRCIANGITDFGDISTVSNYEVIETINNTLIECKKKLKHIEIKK
Briefly: EnzChek assay, recombinant PfAcAS T648M. It counts as biochemical, P. falciparum. The method, then:
as §1, §2

In assay [2] the test system is histone acetylation in P. falciparum 3D7-T648M. Briefly: Histone acetylation Western blot, drug-selected 3D7-T648M. The conditions noted are these: trophozoites, 3 h exposure. In kind it is cell-based.
Method: Synchronous trophozoite-stage (24-32hr post-invasion) cultures at 3–5% parasitemia and 2% hematocrit in complete medium were exposed to test compounds for 3 hr at 37°C. […] DMSO was tested at 0.1% as the vehicle-only control. Following drug exposure, parasites were isolated via saponin lysis ice-cold 0.1% saponin in phosphate-buffered saline (PBS). Isolated parasites were washed 3x in ice-cold PBS containing protease inhibitor cocktail (cOmplete mini, Roche) and lysed in 1x Laemmli Sample Buffer (Biorad) with 5% beta-mercaptoethanol (Sigma-Aldrich). Samples were heated at 99°C for 10 min before centrifugation. Equal quantities of solute were separated on Protean TGX Precast Gels (4–20% gradient) in Tris-SDS-glycine buffer, transferred to nitrocellulose membrane by iblot (Invitrogen), and blocked for 1h in tris-buffered saline (TBS) with 5% skim milk powder. Blocked membranes were probed with antibodies recognising tetra-acetylated H4 (H4ac4, Sigma-Aldrich 06–866), H4K8ac (CST #2594), H3K9ac (CST #9649) or H3 (CST #4499), at 1:1000 dilution, and PfBiP ([Shonhai et al., 2007]) (at 1:5000 dilution) in 3% milk powder TBS with 0.1% Tween 20 at 4°C overnight and with 800CW goat α-rabbit IgG (Licor) at 1:10,000 dilution. Membranes were visualised using a Licor Odyssey CLX imaging system and quantified using ImageJ.

Structures are written as SMILES. Where only a bound is given, the exact number is not on record here.

Results on two compounds are retold here after PMC8878317, “Chemogenomics identifies acetyl-coenzyme A synthetase as a target for malaria treatment and prevention” (Cell Chemical Biology, 2022).

What is called EC50 is the concentration at which the effect is half-maximal. Read a low EC50 as an effect from little substance. For orientation: IC50 means the concentration that inhibits the measured activity by half.

Consider `CCN(CC)S(=O)(=O)c1ccc(Cl)c(C(=O)Nc2ccc3nc(C)sc3c2)c1` [MMV019721], for which the EC50 in assay [1] is 2100 nM. Further, at PfAcAS WT, the “Hill, AcAS WT” value is listed as 0.85 ± 0.04 and the IC50 is 73 ± 4 nM. On PfAcAS T648M, the “Hill, AcAS T648M” value was found to be 0.81 ± 0.12 and the IC50 was found to be 18000 ± 3200 nM. Further, the “histone acetylation in 3D7-T648M parasite line” value in assay [2] was “little to no measurable effect”.

`O=C(NNC(=O)c1csnn1)c1ccc(Cl)cc1` [MMV084978]: the response in assay [1] was half-maximal at 520 ± 210 nM (EC50). Further, the “Hill, AcAS WT” value at PfAcAS WT is 0.85 ± 0.06. Also, the IC50 at PfAcAS WT is 370 ± 40 nM; at PfAcAS T648M, over 100000 nM. Besides, in assay [2], the “histone acetylation in 3D7-T648M parasite line” value is given as “protection”.
